From PMC7956643, “Synthesis of Novel Pyrido[1,2-c]pyrimidine Derivatives with 6-Fluoro-3-(4-piperidynyl)-1,2-benzisoxazole Moiety as Potential SSRI and 5-HT1A Receptor Ligands” (International Journal of Molecular Sciences, 2021)

Experiments:
D2 receptors = molecular target: T1, D2 receptors (Homo sapiens, UniProt P14416); assay: D2 radioligand binding assay; conditions: [3H]-raclopride; HEK293 cells, human receptor
T1 construct: expressed in transfected cells
Experimental: (§1) In vitro radioligand binding assays for 5-HT2A, 5-HT6, 5-HT7 and D2 receptors were carried out using methods published by Zajdel et al.. For the assays, HEK293 cell cultures stably expressing the investigated human receptors were used. Cell pellets were thawed and homogenized in 20 vol of assay buffer using an Ultra Turrax tissue homogenizer, then centrifuged twice at 35000 g for 20 min at 4 °C, with incubation for 15 min at 37 °C in between. The composition of the assay buffers was as follows: for 5-HT2A receptors—50 mM Tris-HCl, 0.1 mM EDTA, 4 mM MgCl2 and 0.1% ascorbate; for 5-HT6 receptors—50 mM Tris-HCl, 0.5 mM EDTA, 4 mM MgCl2; for 5-HT7 receptors—50 mM Tris-HCl, 4 mM MgCl2, 10 µM pargyline and 0.1% ascorbate; for D2 receptors—50 mM Tris-HCl, 1 mM EDTA, 4 mM MgCl2, 120 mM NaCl, 5 mM KCl, 1.5 mM CaCl2 and 0.1% ascorbate. All assays were incubated in total volume of 200 mL in 96-well microtitre plates for 1 h at 37 °C, except for 5-HT2A receptors which were incubated at room temperature for 1.5 h. The process of equilibration was terminated by rapid filtration through Unifilter plates with a 96-well cell harvester, and radioactivity retained on the filters was quantified on a Microbeta plate reader (PerkinElmer, USA). For displacement studies, the assay samples contained as radioligands (PerkinElmer): 2 nM [^3H]-ketanserin (spec. act. 53.4 Ci/mmol) for 5-HT2A receptors; 2 nM [^3H]-LSD (spec. act. 83.6 Ci/mmol) for 5-HT6 receptors; 0.6 nM [^3H]-5-CT (spec. act. 39.2 Ci/mmol) for 5-HT7 receptors and [^3H]-raclopride (spec. act. 76.0 Ci/mmol) for D2 receptors. […] Each compound was tested in triplicate at 7–8 concentrations (10^-11-10^-4 M). The inhibition constants (Ki) were calculated from the Cheng–Prusoff equation [46]. Results were expressed as means of at least two separate experiments.

5-HT7 receptors = molecular target: T2, 5-HT7 receptors (Homo sapiens, UniProt P34969); assay: 5-HT7 radioligand binding assay; conditions: [3H]-5-CT; HEK293 cells, human receptor
T2 construct: expressed in transfected cells
T2 sequence (P34969 whole entry): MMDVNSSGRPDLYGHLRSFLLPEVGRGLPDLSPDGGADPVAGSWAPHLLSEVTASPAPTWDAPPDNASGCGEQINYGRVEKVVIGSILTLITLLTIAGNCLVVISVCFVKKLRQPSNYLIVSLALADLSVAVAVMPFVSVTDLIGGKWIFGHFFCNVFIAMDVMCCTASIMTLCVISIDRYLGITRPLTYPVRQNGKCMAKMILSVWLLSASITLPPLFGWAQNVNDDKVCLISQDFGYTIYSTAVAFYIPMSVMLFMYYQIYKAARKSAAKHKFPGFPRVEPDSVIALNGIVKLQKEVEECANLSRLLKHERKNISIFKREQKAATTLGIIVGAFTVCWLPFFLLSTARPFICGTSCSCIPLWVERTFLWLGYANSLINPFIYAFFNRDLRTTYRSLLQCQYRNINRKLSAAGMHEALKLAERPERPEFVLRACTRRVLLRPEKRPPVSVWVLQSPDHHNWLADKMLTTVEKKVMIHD
Experimental: as §1

5-HT2A receptors = molecular target: T3, 5-HT2A receptors (Homo sapiens, UniProt P28223); assay: 5-HT2A radioligand binding assay; conditions: [3H]-ketanserin; HEK293 cells, human receptor
T3 construct: expressed in transfected cells
T3 sequence (P28223 whole entry): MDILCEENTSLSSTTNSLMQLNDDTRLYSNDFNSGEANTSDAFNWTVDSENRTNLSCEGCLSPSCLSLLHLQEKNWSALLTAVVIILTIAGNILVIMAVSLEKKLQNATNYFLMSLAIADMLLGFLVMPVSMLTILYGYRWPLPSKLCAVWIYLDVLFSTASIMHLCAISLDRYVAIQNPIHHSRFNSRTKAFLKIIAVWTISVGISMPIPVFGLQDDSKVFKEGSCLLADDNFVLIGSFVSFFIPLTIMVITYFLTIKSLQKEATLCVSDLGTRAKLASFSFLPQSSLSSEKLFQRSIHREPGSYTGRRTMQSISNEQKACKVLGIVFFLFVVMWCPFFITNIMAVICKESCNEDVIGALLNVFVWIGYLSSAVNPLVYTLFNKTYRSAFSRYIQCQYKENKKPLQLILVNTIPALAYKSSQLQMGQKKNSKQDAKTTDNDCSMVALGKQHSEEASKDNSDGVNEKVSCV
Experimental: as §1, with “All assays were incubated in total volume of 200 mL in 96-well microtitre plates for 1 h at 37 °C, except for 5-HT2A receptors which were incubated at room temperature for 1.5 h.” left out

SERT protein = molecular target: T4, SERT protein (Rattus norvegicus, UniProt P31652); assay: SERT radioligand binding assay; conditions: [3H]-citalopram 1.0 nM; rat cortex tissue
T4 construct: from tissue; host or cells: rat cortex
T4 sequence (P31652 whole entry): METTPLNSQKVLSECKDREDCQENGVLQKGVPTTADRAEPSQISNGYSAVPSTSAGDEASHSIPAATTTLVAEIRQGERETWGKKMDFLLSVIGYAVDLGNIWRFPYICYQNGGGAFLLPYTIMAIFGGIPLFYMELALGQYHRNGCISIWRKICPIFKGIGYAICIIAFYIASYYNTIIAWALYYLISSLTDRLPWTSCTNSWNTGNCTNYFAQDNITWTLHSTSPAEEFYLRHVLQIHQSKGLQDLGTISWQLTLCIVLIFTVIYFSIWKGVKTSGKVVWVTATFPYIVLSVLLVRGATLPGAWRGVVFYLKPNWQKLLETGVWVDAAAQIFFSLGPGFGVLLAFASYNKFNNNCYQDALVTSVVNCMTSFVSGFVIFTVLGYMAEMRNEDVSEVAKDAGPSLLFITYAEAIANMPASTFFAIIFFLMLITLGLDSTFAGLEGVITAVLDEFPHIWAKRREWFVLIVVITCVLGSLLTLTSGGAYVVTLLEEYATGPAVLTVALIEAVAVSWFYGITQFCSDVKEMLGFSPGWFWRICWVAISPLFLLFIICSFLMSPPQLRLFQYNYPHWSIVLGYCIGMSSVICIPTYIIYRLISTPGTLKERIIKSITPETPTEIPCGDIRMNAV
Experimental: Radioligand binding was performed using rat cortex tissue. All assays were carried out in duplicate. First, 50 µL working solution of the tested compounds, 50 µL [^3H]-citalopram (final concentration 1.0 nM) and 150 µL tissue suspension, prepared in assay buffer (50 mM Tris. pH 7.7; 150 mM NaCl; 5 mM KCl), were transferred to a polypropylene 96-well microplate using 96-wells pipetting station Rainin Liquidator (MettlerToledo). […] The reaction was terminated by rapid filtration through GF/B filter mate presoaked with 0.3% polyethyleneimine for 30 min. Ten rapid washes with 200 µL 50 mM Tris buffer (4 °C, pH 7.7) were performed using an automated harvester system—Harvester-96 MACH III FM (Tomtec). […] Data were fitted to a one-site curve-fitting equation with Prism 6 (GraphPad Software) and Ki values were estimated from the Cheng–Prusoff equation.

T1 sequence (P14416 whole entry): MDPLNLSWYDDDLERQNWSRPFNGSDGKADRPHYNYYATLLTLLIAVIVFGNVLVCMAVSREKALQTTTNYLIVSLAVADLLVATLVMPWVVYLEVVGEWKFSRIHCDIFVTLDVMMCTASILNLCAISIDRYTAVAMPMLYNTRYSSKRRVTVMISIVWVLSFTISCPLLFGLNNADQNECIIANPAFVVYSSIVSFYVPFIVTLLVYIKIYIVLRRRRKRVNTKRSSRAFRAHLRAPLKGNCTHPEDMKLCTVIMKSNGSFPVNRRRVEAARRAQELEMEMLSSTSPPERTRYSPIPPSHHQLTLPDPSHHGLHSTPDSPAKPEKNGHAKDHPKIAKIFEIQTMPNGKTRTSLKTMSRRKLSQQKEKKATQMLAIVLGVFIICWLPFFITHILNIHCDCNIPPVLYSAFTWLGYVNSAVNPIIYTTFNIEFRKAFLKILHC

Ki (D2 receptors) [nM] | Ki (5-HT7 receptors) [nM] | Ki (5-HT2A receptors) [nM] | Ki (SERT protein) [nM] | melting point [°C] | Structure (SMILES)
7 ± 2 | 62 ± 5 | 17 ± 3 | 32 ± 3.6 | 132 to 133 | O=c1c(-c2ccccc2)c2ccccn2c(=O)n1CCCCN1CCC(c2noc3cc(F)ccc23)CC1 [Compound 6a, 4-Phenyl-2-{4-[4-(6-fluoro-1,2-benzoxazol-3-yl)-1-piperidyl]butyl}-pyrido[1,2-c]pyrimidine-1,3-dione]
9 ± 2 | 109 ± 14 | 20 ± 4 | 373 ± 32 | 69 to 74 | O=c1c(-c2ccccc2Cl)c2ccccn2c(=O)n1CCCCN1CCC(c2noc3cc(F)ccc23)CC1 [Compound 6d, 4-(2-Chlorophenyl)-2-{4-[4-(6-fluoro-1,2-benzoxazol)-1-piperidyl]butyl}-pyrido[1,2-c]pyrimidine-1,3-dione]
